Source: the NIST ThermoML archive (doi:10.1016/j.fluid.2005.07.017)
Numbers after ± are expanded uncertainties.

Conditions: Liquid, Vibrating tube method

A mass density (293.15 K, 101 kPa) of 1063.59 ± 0.44 kg/m3, a mass density (303.15 K, 101 kPa) of 1051.55 ± 0.44 kg/m3 and a mass density (313.09 K, 1029 kPa) of 1040.96 ± 0.44 kg/m3 were found for c1ccsc1 [thiophene] in this work. For the same compound, the mass density (313.09 K, 1969 kPa) was 1041.84 ± 0.44 kg/m3, the mass density (313.09 K, 2970 kPa) was 1042.78 ± 0.44 kg/m3 and the mass density (313.09 K, 3987 kPa) was 1043.71 ± 0.44 kg/m3. It also gave a mass density (313.09 K, 5055 kPa) of 1044.72 ± 0.44 kg/m3, a mass density (313.09 K, 5952 kPa) of 1045.51 ± 0.44 kg/m3 and a mass density (313.09 K, 6937 kPa) of 1046.43 ± 0.44 kg/m3. For the same compound, the mass density (313.09 K, 8032 kPa) was 1047.39 ± 0.44 kg/m3, the mass density (313.09 K, 9218 kPa) was 1048.44 ± 0.44 kg/m3 and the mass density (313.09 K, 10045 kPa) was 1049.18 ± 0.44 kg/m3. The mass density (313.09 K, 11012 kPa) was 1050.03 ± 0.44 kg/m3, the mass density (313.09 K, 12014 kPa) was 1050.9 ± 0.44 kg/m3 and the mass density (313.09 K, 12995 kPa) was 1051.74 ± 0.44 kg/m3. The mass density (313.09 K, 13961 kPa) was 1052.59 ± 0.44 kg/m3, the mass density (313.09 K, 14970 kPa) was 1053.43 ± 0.44 kg/m3 and the mass density (313.09 K, 15953 kPa) was 1054.26 ± 0.44 kg/m3. For the same compound, the mass density (313.09 K, 17004 kPa) was 1055.16 ± 0.44 kg/m3, the mass density (313.09 K, 18003 kPa) was 1055.95 ± 0.44 kg/m3 and the mass density (313.09 K, 18904 kPa) was 1056.76 ± 0.44 kg/m3. For the same compound, the mass density (313.15 K, 101 kPa) was 1039.32 ± 0.44 kg/m3, the mass density (323.01 K, 1047 kPa) was 1028.97 ± 0.44 kg/m3 and the mass density (323.01 K, 2059 kPa) was 1029.98 ± 0.44 kg/m3. It also gave a mass density (323.01 K, 3070 kPa) of 1031.02 ± 0.44 kg/m3, a mass density (323.01 K, 4047 kPa) of 1031.99 ± 0.44 kg/m3 and a mass density (323.01 K, 5002 kPa) of 1032.9 ± 0.44 kg/m3. For the same compound, the mass density (323.01 K, 6005 kPa) was 1033.9 ± 0.44 kg/m3, the mass density (323.01 K, 7068 kPa) was 1034.92 ± 0.44 kg/m3 and the mass density (323.01 K, 8021 kPa) was 1035.81 ± 0.44 kg/m3. It also gave a mass density (323.01 K, 9013 kPa) of 1036.76 ± 0.44 kg/m3, a mass density (323.01 K, 10005 kPa) of 1037.67 ± 0.44 kg/m3 and a mass density (323.01 K, 10991 kPa) of 1038.62 ± 0.44 kg/m3. It also gave a mass density (323.01 K, 12034 kPa) of 1039.58 ± 0.44 kg/m3, a mass density (323.01 K, 12977 kPa) of 1040.44 ± 0.44 kg/m3 and a mass density (323.01 K, 13999 kPa) of 1041.38 ± 0.44 kg/m3. It also gave a mass density (323.01 K, 14991 kPa) of 1042.26 ± 0.44 kg/m3, a mass density (323.01 K, 15995 kPa) of 1043.17 ± 0.44 kg/m3 and a mass density (323.01 K, 16998 kPa) of 1044.03 ± 0.44 kg/m3. The mass density (323.01 K, 17983 kPa) was 1044.93 ± 0.44 kg/m3, the mass density (323.01 K, 18951 kPa) was 1045.78 ± 0.44 kg/m3 and the mass density (323.15 K, 101 kPa) was 1026.98 ± 0.44 kg/m3. For the same compound, the mass density (332.85 K, 1015 kPa) was 1016.93 ± 0.44 kg/m3, the mass density (332.85 K, 2035 kPa) was 1018 ± 0.44 kg/m3 and the mass density (332.85 K, 3004 kPa) was 1019.06 ± 0.44 kg/m3. The mass density (332.85 K, 3964 kPa) was 1020.05 ± 0.44 kg/m3, the mass density (332.85 K, 4991 kPa) was 1021.14 ± 0.44 kg/m3 and the mass density (332.85 K, 6001 kPa) was 1022.17 ± 0.44 kg/m3. The mass density (332.85 K, 7014 kPa) was 1023.21 ± 0.44 kg/m3, the mass density (332.85 K, 7998 kPa) was 1024.2 ± 0.44 kg/m3 and the mass density (332.85 K, 9009 kPa) was 1025.23 ± 0.44 kg/m3. For the same compound, the mass density (332.85 K, 9995 kPa) was 1026.19 ± 0.44 kg/m3, the mass density (332.85 K, 10989 kPa) was 1027.18 ± 0.44 kg/m3 and the mass density (332.85 K, 12006 kPa) was 1028.17 ± 0.44 kg/m3. The mass density (332.85 K, 13009 kPa) was 1029.18 ± 0.44 kg/m3, the mass density (332.85 K, 13971 kPa) was 1030.09 ± 0.44 kg/m3 and the mass density (332.85 K, 15006 kPa) was 1031.04 ± 0.44 kg/m3. It also gave a mass density (332.85 K, 15990 kPa) of 1032.01 ± 0.44 kg/m3, a mass density (332.85 K, 17050 kPa) of 1033.03 ± 0.44 kg/m3 and a mass density (332.85 K, 17976 kPa) of 1033.88 ± 0.44 kg/m3. For the same compound, the mass density (332.85 K, 19018 kPa) was 1034.92 ± 0.44 kg/m3, the mass density (333.15 K, 101 kPa) was 1014.58 ± 0.44 kg/m3 and the mass density (342.77 K, 1039 kPa) was 1004.75 ± 0.44 kg/m3. The mass density (342.77 K, 2072 kPa) was 1005.93 ± 0.44 kg/m3, the mass density (342.77 K, 3033 kPa) was 1007.02 ± 0.44 kg/m3 and the mass density (342.77 K, 4023 kPa) was 1008.17 ± 0.44 kg/m3. The mass density (342.77 K, 5027 kPa) was 1009.26 ± 0.44 kg/m3, the mass density (342.77 K, 6033 kPa) was 1010.36 ± 0.44 kg/m3 and the mass density (342.77 K, 7008 kPa) was 1011.44 ± 0.44 kg/m3. The mass density (342.77 K, 7998 kPa) was 1012.5 ± 0.44 kg/m3, the mass density (342.77 K, 9005 kPa) was 1013.59 ± 0.44 kg/m3 and the mass density (342.77 K, 10000 kPa) was 1014.65 ± 0.44 kg/m3. It also gave a mass density (342.77 K, 10963 kPa) of 1015.65 ± 0.44 kg/m3, a mass density (342.77 K, 12009 kPa) of 1016.72 ± 0.44 kg/m3 and a mass density (342.77 K, 13023 kPa) of 1017.82 ± 0.44 kg/m3. For the same compound, the mass density (342.77 K, 13928 kPa) was 1018.74 ± 0.44 kg/m3, the mass density (342.77 K, 15009 kPa) was 1019.83 ± 0.44 kg/m3 and the mass density (342.77 K, 15998 kPa) was 1020.79 ± 0.44 kg/m3. It also gave a mass density (342.77 K, 17025 kPa) of 1021.8 ± 0.44 kg/m3, a mass density (342.77 K, 17995 kPa) of 1022.8 ± 0.44 kg/m3 and a mass density (342.77 K, 19013 kPa) of 1023.79 ± 0.44 kg/m3. For the same compound, the mass density (342.77 K, 20001 kPa) was 1024.73 ± 0.44 kg/m3, the mass density (343.15 K, 101 kPa) was 1002.15 ± 0.44 kg/m3 and the mass density (352.67 K, 1064 kPa) was 992.39 ± 0.44 kg/m3. For the same compound, the mass density (352.67 K, 2003 kPa) was 993.54 ± 0.44 kg/m3, the mass density (352.67 K, 3024 kPa) was 994.79 ± 0.44 kg/m3 and the mass density (352.67 K, 4003 kPa) was 995.98 ± 0.44 kg/m3. The mass density (352.67 K, 5048 kPa) was 997.22 ± 0.43 kg/m3, the mass density (352.67 K, 6013 kPa) was 998.36 ± 0.43 kg/m3 and the mass density (352.67 K, 7013 kPa) was 999.51 ± 0.43 kg/m3. For the same compound, the mass density (352.67 K, 8050 kPa) was 1000.73 ± 0.43 kg/m3, the mass density (352.67 K, 9018 kPa) was 1001.82 ± 0.43 kg/m3 and the mass density (352.67 K, 10003 kPa) was 1002.93 ± 0.43 kg/m3. It also gave a mass density (352.67 K, 11003 kPa) of 1004.07 ± 0.43 kg/m3, a mass density (352.67 K, 12004 kPa) of 1005.16 ± 0.43 kg/m3 and a mass density (352.67 K, 12998 kPa) of 1006.25 ± 0.44 kg/m3. It also gave a mass density (352.67 K, 14005 kPa) of 1007.34 ± 0.44 kg/m3, a mass density (352.67 K, 15038 kPa) of 1008.46 ± 0.44 kg/m3 and a mass density (352.67 K, 16006 kPa) of 1009.49 ± 0.44 kg/m3. It also gave a mass density (352.67 K, 17027 kPa) of 1010.58 ± 0.44 kg/m3, a mass density (352.67 K, 18001 kPa) of 1011.6 ± 0.44 kg/m3 and a mass density (352.67 K, 19031 kPa) of 1012.65 ± 0.44 kg/m3. For the same compound, the mass density (352.67 K, 20017 kPa) was 1013.74 ± 0.44 kg/m3, the mass density (353.15 K, 101 kPa) was 989.76 ± 0.44 kg/m3 and the mass density (362.51 K, 1007 kPa) was 979.8 ± 0.44 kg/m3. For the same compound, the mass density (362.51 K, 2022 kPa) was 981.13 ± 0.44 kg/m3, the mass density (362.51 K, 3029 kPa) was 982.49 ± 0.44 kg/m3 and the mass density (362.51 K, 4004 kPa) was 983.74 ± 0.44 kg/m3. The mass density (362.51 K, 5006 kPa) was 985.01 ± 0.44 kg/m3, the mass density (362.51 K, 6003 kPa) was 986.27 ± 0.43 kg/m3 and the mass density (362.51 K, 6999 kPa) was 987.5 ± 0.43 kg/m3. It also gave a mass density (362.51 K, 7993 kPa) of 988.73 ± 0.43 kg/m3, a mass density (362.51 K, 9007 kPa) of 989.99 ± 0.43 kg/m3 and a mass density (362.51 K, 9993 kPa) of 991.16 ± 0.43 kg/m3. The mass density (362.51 K, 10997 kPa) was 992.36 ± 0.43 kg/m3, the mass density (362.51 K, 11993 kPa) was 993.56 ± 0.43 kg/m3 and the mass density (362.51 K, 12838 kPa) was 994.53 ± 0.43 kg/m3. It also gave a mass density (362.51 K, 14038 kPa) of 995.94 ± 0.43 kg/m3, a mass density (362.51 K, 15044 kPa) of 997.1 ± 0.43 kg/m3 and a mass density (362.51 K, 16029 kPa) of 998.18 ± 0.43 kg/m3. For the same compound, the mass density (362.51 K, 17006 kPa) was 999.27 ± 0.43 kg/m3, the mass density (362.51 K, 18016 kPa) was 1000.4 ± 0.43 kg/m3 and the mass density (362.51 K, 18987 kPa) was 1001.47 ± 0.43 kg/m3.
